Experimental data taken from PubChem BioAssay AID1117286 (Broad Institute, 2014).
Results filed as inconclusive are left out. Calls of active or inactive are those of the source.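 How the source made its calls: active means every test run gives a falling-signal AC50 no higher than twice the top tested dose; inconclusive means runs disagree, or a flat partial drop, or a poor fit; inactive means all runs inactive, including rising signal.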

Each molecule was assayed against Endoplasmic reticulum aminopeptidase 2 (Homo sapiens) (UniProt Q6P179) (assay: inhibition of recombinant ERAP2 Arg-AMC cleavage – biochemical, plate reader, dry powder samples, selectivity assay for selective ERAP1 modulator project, dose response (AID 1117286)). Conditions: Recombinant ERAP2, Arg-AMC cleavage fluorescence, 1 h.
Endoplasmic reticulum aminopeptidase 2 (Homo sapiens), sequence (Q6P179 whole entry, looked up): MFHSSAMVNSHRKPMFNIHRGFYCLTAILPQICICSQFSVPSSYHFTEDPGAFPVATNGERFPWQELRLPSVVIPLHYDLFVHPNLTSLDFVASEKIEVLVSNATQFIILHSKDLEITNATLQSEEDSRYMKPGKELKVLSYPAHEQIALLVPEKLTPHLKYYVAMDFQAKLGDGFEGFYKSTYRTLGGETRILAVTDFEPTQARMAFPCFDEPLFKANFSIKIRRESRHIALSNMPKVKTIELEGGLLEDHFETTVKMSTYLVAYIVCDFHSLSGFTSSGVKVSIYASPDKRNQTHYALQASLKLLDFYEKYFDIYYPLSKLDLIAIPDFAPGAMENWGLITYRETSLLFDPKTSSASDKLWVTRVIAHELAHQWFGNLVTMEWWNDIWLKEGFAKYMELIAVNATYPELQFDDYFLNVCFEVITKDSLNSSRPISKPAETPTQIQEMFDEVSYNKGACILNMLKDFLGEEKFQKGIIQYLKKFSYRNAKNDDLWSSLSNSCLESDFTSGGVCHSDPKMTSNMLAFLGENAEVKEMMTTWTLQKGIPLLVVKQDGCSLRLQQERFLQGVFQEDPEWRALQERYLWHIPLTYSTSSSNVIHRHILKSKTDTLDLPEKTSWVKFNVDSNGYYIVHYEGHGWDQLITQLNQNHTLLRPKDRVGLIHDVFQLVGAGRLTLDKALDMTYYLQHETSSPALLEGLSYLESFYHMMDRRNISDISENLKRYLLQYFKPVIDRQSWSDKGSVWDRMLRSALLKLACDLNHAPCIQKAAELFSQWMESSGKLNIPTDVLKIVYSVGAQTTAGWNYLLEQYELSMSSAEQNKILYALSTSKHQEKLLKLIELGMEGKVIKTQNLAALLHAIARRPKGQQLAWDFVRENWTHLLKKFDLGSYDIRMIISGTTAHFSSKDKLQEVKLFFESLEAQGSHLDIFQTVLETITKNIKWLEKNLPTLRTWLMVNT

Q: Which AC50 does the source give for CC(=O)N1CCN(C(=O)[C@@H]2CCN2C(=O)Nc2ccc(C)cc2)CC1 here?
A: The AC50 was > 100 µM (inactive).

Q: COc1ccc(C(=O)Nc2cc(C(F)(F)F)ccc2N2CCCCC2)cc1S(=O)(=O)O was tested. Which AC50 did it give?
A: Its AC50 is > 100 µM (inactive).

Same assay, conditions: Recombinant ERAP2, Arg-AMC cleavage fluorescence, 1 h; at 26 µM (top of the series)

Q: How did the “activity change, negative = inhibition” value turn out when COc1ccc(C2=NN(c3ccc(C(=O)O)cc3)C(c3ccc(OC)c(OC)c3)C2)cc1 (configuration not stated) was run?
A: Its value is “inactive”.

Same assay, conditions: Recombinant ERAP2, Arg-AMC cleavage fluorescence, 1 h; at 50 µM (top of the series)

Q: For COc1ccc(C(=O)O)cc1S(=O)(=O)Nc1cc(C)ccc1N1CCCCC1, which “activity change, negative = inhibition” value is on record?
A: The value was “inactive”.

Q: For CC(=O)N1CCN(C(=O)C2(NC(=O)Nc3ccc(C(C)C)cc3)CCCCC2)CC1, which “activity change, negative = inhibition” value is on record?
A: Its value is “inactive”.

Q: With COc1ccc(C(=O)Nc2ccccc2N2CCCCC2)cc1S(=O)(=O)O as the molecule, how does the “activity change, negative = inhibition” value read?
A: The value was “inactive”.

Q: Which “activity change, negative = inhibition” value does the source give for COc1cccc(NC(=O)NC2(C(=O)N3CCN(C(C)=O)CC3)CCCCC2)c1 here?
A: Its value is “inactive”.

Q: O=S(=O)(Nc1cc(C(F)(F)F)ccc1N1CCCCC1)c1ccc(Br)cc1 was tested. Which “activity change, negative = inhibition” value did it give?
A: The value was “inactive”.

Q: With COc1ccc(S(=O)(=O)Nc2cc(C(F)(F)F)ccc2N2CCCCC2)cc1 as the molecule, how does the “activity change, negative = inhibition” value read?
A: The value was “inactive”.

Q: Which “activity change, negative = inhibition” value does the source give for CC(=O)N1CCN(C(=O)C2(NC(=O)Nc3ccc(F)cc3)CCCC2)CC1 here?
A: The value was “inactive”.

Q: CC(=O)N1CCN(C(=O)C2(NC(=O)Nc3ccccc3F)CCCCC2)CC1 was tested. Which “activity change, negative = inhibition” value did it give?
A: The value was “inactive”.

Q: For COc1ccc(C(=O)O)cc1S(=O)(=O)Nc1ccccc1N1CCCCC1, which “activity change, negative = inhibition” value is on record?
A: The value was “inactive”.

Q: How did the “activity change, negative = inhibition” value turn out when O=C(Nc1cc(C(F)(F)F)ccc1N1CCCCC1)c1ccc(S(=O)(=O)O)cc1 was run?
A: The value was “inactive”.

Q: How did the “activity change, negative = inhibition” value turn out when CC(=O)N1CCN(C(=O)C2(NC(=O)NC(C)(C)C)CCCCC2)CC1 was run?
A: The value was “inactive”.

Q: For CC(=O)N1CCN(C(=O)CNC(=O)Nc2ccc(C)cc2)CC1, which “activity change, negative = inhibition” value is on record?
A: The value was “inactive”.

Q: For CC(=O)N1CCN(C(=O)C2(NC(=O)Nc3ccc(Cl)cc3)CCCCC2)CC1, which “activity change, negative = inhibition” value is on record?
A: Its value is “inactive”.

Q: How did the “activity change, negative = inhibition” value turn out when CC(=O)N1CCN(C(=O)C2(NC(=O)Nc3ccc(C(C)C)cc3)CCCC2)CC1 was run?
A: The value was “inactive”.

Q: How did the “activity change, negative = inhibition” value turn out when Cc1ccc(NC(=O)NC2(C(=O)N3CCN(c4ccccc4)CC3)CCCCC2)cc1 was run?
A: The value was “inactive”.

Q: How did the “activity change, negative = inhibition” value turn out when CC(=O)N1CCN(C(=O)C2(NC(=O)Nc3cccc(F)c3)CCCCC2)CC1 was run?
A: Its value is “inactive”.

Q: O=S(=O)(Nc1cc(C(F)(F)F)ccc1N1CCCCC1)c1ccc(F)cc1 was tested. Which “activity change, negative = inhibition” value did it give?
A: The value was “inactive”.

Q: How did the “activity change, negative = inhibition” value turn out when CC(=O)N1CCN(C(=O)C2(NC(=O)Nc3ccc(C(F)(F)F)cc3)CCCC2)CC1 was run?
A: The value was “inactive”.

Q: Which “activity change, negative = inhibition” value does the source give for COc1ccc(C(=O)O)cc1S(=O)(=O)Nc1cc(C(F)(F)F)ccc1N1CCOCC1 here?
A: The value was “inactive”.

Q: With O=[N+]([O-])c1ccc(S(=O)(=O)Nc2cc(C(F)(F)F)ccc2N2CCCCC2)c([N+](=O)[O-])c1 as the molecule, how does the “activity change, negative = inhibition” value read?
A: Its value is “inactive”.

Q: Which “activity change, negative = inhibition” value does the source give for Cc1ccc(NC(=O)NC2(C(=O)N3CCOCC3)CCCCC2)cc1 here?
A: Its value is “inactive”.

Q: With CC(=O)N1CCN(C(=O)C2(NC(=O)Nc3cccc(C(F)(F)F)c3)CCCCC2)CC1 as the molecule, how does the “activity change, negative = inhibition” value read?
A: The value was “inactive”.

Q: NC(=NCCc1c[nH]c2ccccc12)NS(=O)(=O)c1cc(F)ccc1F was tested. Which “activity change, negative = inhibition” value did it give?
A: Its value is “inactive”.

Q: For O=[N+]([O-])c1cccc(S(=O)(=O)Nc2cc(C(F)(F)F)ccc2N2CCCCC2)c1, which “activity change, negative = inhibition” value is on record?
A: The value was “inactive”.

Q: COc1ccc(C(=O)O)cc1S(=O)(=O)Nc1cc(C(F)(F)F)ccc1N(C)C was tested. Which “activity change, negative = inhibition” value did it give?
A: The value was “inactive”.

Q: With CC(=O)N1CCN(C(=O)C2(NC(=O)Nc3ccccc3)CCCC2)CC1 as the molecule, how does the “activity change, negative = inhibition” value read?
A: The value was “inactive”.

Q: Which “activity change, negative = inhibition” value does the source give for Cn1cnc(S(=O)(=O)Nc2cc(C(F)(F)F)ccc2N2CCCCC2)c1 here?
A: Its value is “inactive”.

Q: CC(=O)N1CCN(C(=O)C2(NC(=O)Nc3ccc(F)cc3)CCCCC2)CC1 was tested. Which “activity change, negative = inhibition” value did it give?
A: Its value is “inactive”.

Q: Which “activity change, negative = inhibition” value does the source give for O=S(=O)(Nc1cc(C(F)(F)F)ccc1N1CCCCC1)c1ccc(-c2ccccc2)cc1 here?
A: The value was “inactive”.

Q: Which “activity change, negative = inhibition” value does the source give for CC(=O)N1CCN(C(=O)C2(NC(=O)Nc3ccc(C)cc3)CCCCC2)CC1 here?
A: Its value is “inactive”.

Q: COc1ccc(NC(=O)NC2(C(=O)N3CCN(C(C)=O)CC3)CCCCC2)cc1 was tested. Which “activity change, negative = inhibition” value did it give?
A: Its value is “inactive”.

Q: How did the “activity change, negative = inhibition” value turn out when Cc1ccccc1S(=O)(=O)Nc1cc(C(F)(F)F)ccc1N1CCCCC1 was run?
A: The value was “inactive”.

Q: How did the “activity change, negative = inhibition” value turn out when CC(=O)N1CCN(C(=O)C2(NC(=O)Nc3ccccc3)CCCCC2)CC1 was run?
A: Its value is “inactive”.

Q: For COc1ccc(C(=O)O)cc1S(=O)(=O)Nc1cc(C(F)(F)F)ccc1N1CCCCC1, which “activity change, negative = inhibition” value is on record?
A: Its value is “inactive”.

Q: Which “activity change, negative = inhibition” value does the source give for CC(=O)N1CCN(C(=O)C2(NC(=O)NCCc3ccccc3)CCCCC2)CC1 here?
A: Its value is “inactive”.

Q: COc1ccc(C(=O)Nc2cccc(C(F)(F)F)c2)cc1S(=O)(=O)O was tested. Which “activity change, negative = inhibition” value did it give?
A: The value was “inactive”.

Q: With O=S(=O)(Nc1cc(C(F)(F)F)ccc1N1CCCCC1)c1ccccc1 as the molecule, how does the “activity change, negative = inhibition” value read?
A: The value was “inactive”.

Q: How did the “activity change, negative = inhibition” value turn out when N#Cc1ccc(S(=O)(=O)Nc2cc(C(F)(F)F)ccc2N2CCCCC2)cc1 was run?
A: The value was “inactive”.

Q: Which “activity change, negative = inhibition” value does the source give for COc1ccc(C(=O)Nc2cc(F)ccc2N2CCCCC2)cc1S(=O)(=O)O here?
A: Its value is “inactive”.

Q: Which “activity change, negative = inhibition” value does the source give for O=S(=O)(Nc1cc(C(F)(F)F)ccc1N1CCCCC1)c1ccc(C(F)(F)F)cc1 here?
A: The value was “inactive”.

Q: Which “activity change, negative = inhibition” value does the source give for CC(=O)N1CCN(C(=O)C(C)(C)NC(=O)Nc2ccc(C)cc2)CC1 here?
A: Its value is “inactive”.

Q: For COc1ccc(C(=O)Nc2cc(C(F)(F)F)ccc2N2CCCC2)cc1S(=O)(=O)O, which “activity change, negative = inhibition” value is on record?
A: Its value is “inactive”.

Q: Which “activity change, negative = inhibition” value does the source give for COc1ccc(C(=O)Nc2cc(C)ccc2N2CCCCC2)cc1S(=O)(=O)O here?
A: The value was “inactive”.

Q: With Cc1ccc(NC(=O)NC2(C(=O)N3CCNCC3)CCCCC2)cc1 as the molecule, how does the “activity change, negative = inhibition” value read?
A: The value was “inactive”.

Q: Which “activity change, negative = inhibition” value does the source give for CC(=O)N1CCN(C(=O)C2CCCN2C(=O)Nc2ccc(C)cc2)CC1 (configuration not stated) here?
A: The value was “inactive”.

Q: How did the “activity change, negative = inhibition” value turn out when COc1ccc(C(=O)O)cc1S(=O)(=O)Nc1cc(F)ccc1N1CCCCC1 was run?
A: Its value is “inactive”.

Q: How did the “activity change, negative = inhibition” value turn out when O=S(=O)(Nc1cc(C(F)(F)F)ccc1N1CCCCC1)c1cc(Cl)cc(Cl)c1 was run?
A: Its value is “inactive”.

Q: How did the “activity change, negative = inhibition” value turn out when CC(=O)N1CCN(C(=O)C2(NC(=O)Nc3ccccc3C(F)(F)F)CCCCC2)CC1 was run?
A: The value was “inactive”.

Q: For O=S(=O)(Nc1cc(C(F)(F)F)ccc1N1CCCCC1)c1ccc(Cl)cc1, which “activity change, negative = inhibition” value is on record?
A: The value was “inactive”.
